Literature values as cited in PMC9063988 (JACS Au, 2022).

System: uptake of ETP transporter 21 into HeLa Kyoto cells

O[C@H](CS)[C@@H](O)CS [DTE, 1,4-Dithioerythritol]
inhibition of thiol-mediated uptake: fail to inhibit
